Experimental data from US20230312578A1, “6H-INDOLO[2,3-B]QUINOXALINE DERIVATIVES USEFUL IN THERAPY” (Vironova Medical AB, priority 2020, published 2023).
Read-outs that look alike come from different tables or passages of the source.

How the values were obtained:
Assay type in all cases: cell-based
[1] = Human tumor cell line growth assay (SRB); settings: human, HCT-116 cells (colon), HCT-116, 48 h, read-out: LC50
HCT-116 = experiment: Human tumor cell line growth assay (SRB); settings: Homo sapiens; Colon, HCT-116, 48 h
PC-3 = experiment: Human tumor cell line growth assay (SRB); settings: Prostate, PC-3, 48 h
TK-10 = experiment: Human tumor cell line growth assay (SRB); settings: Renal, TK-10, 48 h
[2] = Human tumor cell line growth assay (SRB); settings: human, UACC-257 cells (melanoma), UACC-257, 48 h, read-out: LC50
UACC-257 = experiment: Human tumor cell line growth assay (SRB); settings: Homo sapiens; Melanoma, UACC-257, 48 h
CAKI-1 = experiment: Human tumor cell line growth assay (SRB); settings: Renal, CAKI-1, 48 h
[3] = Human tumor cell line growth assay (SRB); settings: human, HOP-62 cells (NSCLC), HOP-62, 48 h, read-out: LC50
HOP-62 = experiment: Human tumor cell line growth assay (SRB); settings: Homo sapiens; NSCLC, HOP-62, 48 h
[4] = Human tumor cell line growth assay (SRB); settings: human, SW-620 cells (colon), SW-620, 48 h
SW-620 = experiment: Human tumor cell line growth assay (SRB); settings: Homo sapiens; Colon, SW-620, 48 h
[5] = Human tumor cell line growth assay (SRB); settings: human, LOX IMVI cells (melanoma), read-out: LC50
LOX IMVI = experiment: Human tumor cell line growth assay (SRB); settings: Homo sapiens, Melanoma, 48 h
RXF 393 = experiment: Human tumor cell line growth assay (SRB); settings: Renal, RXF 393, 48 h
[6] = Human tumor cell line growth assay (SRB); settings: human, EKVX cells (NSCLC), read-out: LC50
EKVX = experiment: Human tumor cell line growth assay (SRB); settings: Homo sapiens, NSCLC, 48 h
CCRF-CEM = experiment: Human tumor cell line growth assay (SRB); settings: Leukemia, 48 h
[7] = Human tumor cell line growth assay (SRB); settings: human, SK-MEL-2 cells (melanoma), SK-MEL-2, 48 h, read-out: LC50
SK-MEL-2 = experiment: Human tumor cell line growth assay (SRB); settings: Homo sapiens; Melanoma, SK-MEL-2, 48 h
SK-OV-3 = experiment: Human tumor cell line growth assay (SRB); settings: Ovarian, SK-OV-3, 48 h
HL-60(TB) = experiment: Human tumor cell line growth assay (SRB); settings: Leukemia, 48 h
HS 578T = experiment: Human tumor cell line growth assay (SRB); settings: Breast, 48 h
[8] = Human tumor cell line growth assay (SRB); settings: human, SR cells (leukemia), read-out: LC50
SR = experiment: Human tumor cell line growth assay (SRB); settings: Homo sapiens, Leukemia, 48 h
[9] = Human tumor cell line growth assay (SRB); settings: human, SNB-75 cells (CNS), SNB-75, 48 h
SNB-75 = experiment: Human tumor cell line growth assay (SRB); settings: Homo sapiens; CNS, SNB-75, 48 h
786-0 = experiment: Human tumor cell line growth assay (SRB); settings: Renal, 786-0, 48 h
MDA-MB-231/ATCC = experiment: Human tumor cell line growth assay (SRB); settings: Breast, 48 h
[10] = Human tumor cell line growth assay (SRB); settings: human, NCI-H226 cells (NSCLC), NCI-H226, 48 h, read-out: LC50
NCI-H226 = experiment: Human tumor cell line growth assay (SRB); settings: Homo sapiens; NSCLC, NCI-H226, 48 h
[11] = Human tumor cell line growth assay (SRB); settings: human, MALME-3M cells (melanoma), read-out: LC50
MALME-3M = experiment: Human tumor cell line growth assay (SRB); settings: Homo sapiens, Melanoma, 48 h
[12] = Human tumor cell line growth assay (SRB); settings: human, SNB-19 cells (CNS), SNB-19, 48 h, read-out: LC50
SNB-19 = experiment: Human tumor cell line growth assay (SRB); settings: Homo sapiens; CNS, SNB-19, 48 h
[13] = Human tumor cell line growth assay (SRB); settings: human, NCI-H23 cells (NSCLC), NCI-H23, 48 h, read-out: LC50
NCI-H23 = experiment: Human tumor cell line growth assay (SRB); settings: Homo sapiens; NSCLC, NCI-H23, 48 h
[14] = Human tumor cell line growth assay (SRB); settings: human, A549/ATCC cells (NSCLC), read-out: LC50
A549/ATCC = experiment: Human tumor cell line growth assay (SRB); settings: Homo sapiens, NSCLC, 48 h
[15] = read-out: LC50 (the source's name)

Cc1cc2nc3c4cc(N)ccc4n(CCN(C)C)c3nc2cc1C [JBD-136, 6-(2-(dimethylamino)ethyl)-2,3-dimethyl-6H-indolo [2,3-b]quinoxalin-9-amine]
CC50 at 48 h [1]: 51.4 µM
GI50 (HCT-116): 369 nM
GI50 (PC-3): 1280 nM
CC50 (PC-3; [15]): 51.9 µM
GI50 (TK-10): 2260 nM
CC50 (TK-10; [15]): > 100 µM
CC50 at 48 h [2]: 71.5 µM
GI50 (UACC-257): 1500 nM
GI50 (CAKI-1): 427 nM
CC50 (CAKI-1; [15]): 85.5 µM
CC50 at 48 h [3]: > 100 µM
GI50 (HOP-62): 1140 nM
LC50 (50% lethal concentration) at 48 h [4]: 83.8 µM
GI50 (SW-620): 389 nM
CC50 at 48 h [5]: 21.8 µM
GI50 (LOX IMVI): 494 nM
GI50 (RXF 393): 1130 nM
CC50 (RXF 393; [15]): 6.4 µM
CC50 at 48 h [6]: > 100 µM
GI50 (EKVX): 1990 nM
GI50 (CCRF-CEM): 862 nM
CC50 (CCRF-CEM; [15]): 76.9 µM
CC50 at 48 h [7]: 66.7 µM
GI50 (SK-MEL-2): 1630 nM
GI50 (SK-OV-3): 2230 nM
CC50 (SK-OV-3; [15]): > 100 µM
GI50 (HL-60(TB)): 1210 nM
CC50 (HL-60(TB); [15]): 21.9 µM
GI50 (HS 578T): 2120 nM
CC50 (HS 578T; [15]): > 100 µM
CC50 at 48 h [8]: > 100 µM
GI50 (SR): 239 nM
LC50 (concentration killing 50% of cells) at 48 h [9]: 24.8 µM
GI50 (SNB-75): 1250 nM
GI50 (786-0): 1520 nM
LC50 (786-0): 38.5 µM
GI50 (MDA-MB-231/ATCC): 1220 nM
CC50 (MDA-MB-231/ATCC; [15]): 57.5 µM
CC50 at 48 h [10]: > 100 µM
GI50 (NCI-H226): 1320 nM
CC50 at 48 h [11]: 7.43 µM
GI50 (MALME-3M): 1270 nM
CC50 at 48 h [12]: > 100 µM
GI50 (SNB-19): 767 nM
CC50 at 48 h [13]: 33 µM
GI50 (NCI-H23): 1080 nM
CC50 at 48 h [14]: > 100 µM
GI50 (A549/ATCC): 464 nM
